# Key:
# F508delCFTR [1] = biological target: T1, F508delCFTR (Homo sapiens, UniProt P13569, DEL508-508); assay: Cell Surface Expression-Horse Radish Peroxidase (CSE-HRP) assay, test compound with co-corrector; format: cell-based; conditions: for EC50: CSE-HRP assay, test compound with 2 μM co-corrector; for Maximum % activity (with co-corrector): maximum at any tested concentration, normalized to on-plate positive control, with 2 μM co-corrector;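 on Maximum % activity (with co-corrector): percent of 2 µM positive control corrector over DMSO; co-corrector is that same compound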
# T1 construct: expressed in transfected cells; host or cells: CFBE41o- human lung-derived epithelial cells (CFBE41o-F508delCFTR-HRP), doxycycline-inducible
# T1 sequence (P13569 with tags, fused parts or gaps DEL508-508): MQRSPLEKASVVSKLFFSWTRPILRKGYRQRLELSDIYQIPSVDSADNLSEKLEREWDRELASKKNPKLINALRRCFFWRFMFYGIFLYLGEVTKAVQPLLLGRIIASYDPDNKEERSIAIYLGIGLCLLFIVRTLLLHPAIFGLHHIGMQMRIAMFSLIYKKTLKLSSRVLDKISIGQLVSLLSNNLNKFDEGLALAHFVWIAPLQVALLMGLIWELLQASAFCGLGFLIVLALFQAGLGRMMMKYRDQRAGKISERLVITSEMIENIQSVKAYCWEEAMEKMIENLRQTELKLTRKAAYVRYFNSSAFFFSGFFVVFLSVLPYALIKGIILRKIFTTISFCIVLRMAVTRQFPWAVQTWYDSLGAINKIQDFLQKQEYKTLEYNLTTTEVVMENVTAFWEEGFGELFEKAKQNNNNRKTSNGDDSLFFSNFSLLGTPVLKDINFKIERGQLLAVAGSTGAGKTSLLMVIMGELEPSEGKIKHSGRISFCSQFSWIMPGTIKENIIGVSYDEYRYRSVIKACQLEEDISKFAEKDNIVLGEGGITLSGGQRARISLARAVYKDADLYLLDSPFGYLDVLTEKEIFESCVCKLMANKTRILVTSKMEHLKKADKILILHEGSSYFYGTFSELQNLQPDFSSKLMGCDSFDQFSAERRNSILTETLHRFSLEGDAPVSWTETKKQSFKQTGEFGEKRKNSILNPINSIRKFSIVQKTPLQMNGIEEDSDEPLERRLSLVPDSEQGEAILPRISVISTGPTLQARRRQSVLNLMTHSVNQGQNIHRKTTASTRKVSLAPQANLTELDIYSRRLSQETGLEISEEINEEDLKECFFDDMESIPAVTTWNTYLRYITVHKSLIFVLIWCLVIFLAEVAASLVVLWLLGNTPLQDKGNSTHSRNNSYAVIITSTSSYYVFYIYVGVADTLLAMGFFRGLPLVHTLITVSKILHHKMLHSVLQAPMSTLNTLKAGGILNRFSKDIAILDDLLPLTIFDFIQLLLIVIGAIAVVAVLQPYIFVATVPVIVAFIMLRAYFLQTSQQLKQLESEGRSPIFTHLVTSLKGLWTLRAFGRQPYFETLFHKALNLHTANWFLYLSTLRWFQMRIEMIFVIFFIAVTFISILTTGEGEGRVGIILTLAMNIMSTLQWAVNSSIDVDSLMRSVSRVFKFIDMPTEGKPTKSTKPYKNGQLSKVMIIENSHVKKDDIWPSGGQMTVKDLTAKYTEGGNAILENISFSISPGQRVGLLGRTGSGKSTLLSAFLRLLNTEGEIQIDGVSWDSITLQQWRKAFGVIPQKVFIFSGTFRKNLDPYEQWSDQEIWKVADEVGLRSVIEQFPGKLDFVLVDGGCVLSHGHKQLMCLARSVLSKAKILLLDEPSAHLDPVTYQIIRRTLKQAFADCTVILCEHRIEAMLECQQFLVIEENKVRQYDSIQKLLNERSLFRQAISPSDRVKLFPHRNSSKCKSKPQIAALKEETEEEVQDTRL
# In short: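 CFBE41o- cells expressing F508delCFTR with HRP in the fourth exofacial loop, induced with 0.5 μg/mL doxycycline for 72 h, then treated 18-24 h at 33° C. with compound (8 points, top 20 μM, 3-fold) plus 2 μM co-corrector. Surface HRP read by luminol luminescence; activity normalised to positive control, EC50 from variable-slope sigmoidal fit.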
# F508delCFTR [2] = biological target: T1, F508delCFTR; assay: Cell Surface Expression-Horse Radish Peroxidase (CSE-HRP) assay, test compound without co-corrector; format: cell-based; conditions: for EC50: CSE-HRP assay, test compound without co-corrector; for Emax: maximum at any tested concentration, normalized to on-plate positive control, without co-corrector;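 on Emax: percent of on-plate 2 µM positive control corrector response over DMSO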
# In short: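 CFBE41o- cells expressing F508delCFTR with HRP in the fourth exofacial loop, induced with 0.5 μg/mL doxycycline for 72 h at 37° C, then exposed to compound alone for 18-24 h at 33° C, 8-point 3-fold series from 20 μM. Surface HRP read by luminol luminescence, normalized to positive corrector control versus DMSO; EC50 from variable-slope sigmoidal fit of three replicate plates.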
Compound,EC50 (F508delCFTR [1]) [µM],Maximum % activity (with co-corrector) (F508delCFTR [1]),EC50 (F508delCFTR [2]) [µM],Emax (F508delCFTR [2]) [%]
CCC1(C(=O)NS(=O)(=O)c2ccc(OC)cc2)CCc2c(Cl)cccc21 (stereo not shown) [III-142],3 to 10,++ (≥150 and <350),3 to 10,< 50
CCC1(C(=O)NS(=O)(=O)c2ccc(Oc3ccccc3)cc2)CCc2c(Cl)cccc21 (stereo not shown) [III-143],≥ 10,+ (<150),≥ 10,< 50
CCC1(C(=O)NS(=O)(=O)c2cccc(C#N)c2)CCc2c(Cl)cccc21 (stereo not shown) [III-144],3 to 10,++ (≥150 and <350),≥ 10,< 50
CCC1(C(=O)NS(=O)(=O)c2cc[nH]n2)CCc2c(Cl)cccc21 (stereo not shown) [III-145],3 to 10,++ (≥150 and <350),3 to 10,< 50
O=C(NS(=O)(=O)c1cccc2ccccc12)C1(Cc2ccccn2)CCc2c(Cl)cccc21 (stereo not shown) [III-147],3 to 10,++ (≥150 and <350),3 to 10,< 50
COc1ccc(-c2cccc(OC(F)(F)F)c2)c2c1CCCC2C(=O)NS(=O)(=O)c1cccc2ccccc12 (stereo not shown) [III-148],< 3,+++ (≥350),< 3,≥ 150
CCC1(C(=O)NS(=O)(=O)c2cccc(Cl)c2C(=O)OC)CCc2c(Cl)cccc21 (stereo not shown) [III-149],< 3,+ (<150),≥ 10,< 50
O=C(NS(=O)(=O)c1cccc2ccccc12)C1CCc2c(Br)ccc(O)c21 (stereo not shown) [III-152],3 to 10,++ (≥150 and <350),3 to 10,< 50
COc1ccc(N2CCOCC2)c2c1CCCC2C(=O)NS(=O)(=O)c1cccc2ccccc12 (stereo not shown) [III-153],≥ 10,+ (<150),≥ 10,< 50
COc1ccc(-c2ccc(C(F)(F)F)cc2)c2c1CCCC2C(=O)NS(=O)(=O)c1cccc2ccccc12 (stereo not shown) [III-154],< 3,+++ (≥350),< 3,≥ 150
CCC1(C(=O)NS(=O)(=O)c2cccc(Cl)c2C)CCc2c(Cl)cccc21 (stereo not shown) [III-156],< 3,++ (≥150 and <350),3 to 10,50 to 150
COc1ccc(Br)c2c1C(C(=O)NS(=O)(=O)c1cccnc1OC)CC2 (stereo not shown) [III-158],3 to 10,++ (≥150 and <350),3 to 10,50 to 150
COc1ccc(Br)c2c1C(C(=O)NS(=O)(=O)c1cccnc1N)CC2 (stereo not shown) [III-159],3 to 10,+++ (≥350),3 to 10,≥ 150
COc1ccc(Br)c2c1C(C(=O)NS(=O)(=O)c1cccc(N)n1)CC2 (stereo not shown) [III-160],3 to 10,+++ (≥350),3 to 10,50 to 150
CCOc1ccc(S(=O)(=O)NC(=O)C2CCc3c(Br)ccc(OC)c32)c2ccccc12 (stereo not shown) [III-161],3 to 10,++ (≥150 and <350),3 to 10,< 50
COc1ccc(Br)c2c1C(C(=O)NS(=O)(=O)c1ccc(OC)c3ccccc13)CC2 (stereo not shown) [III-162],3 to 10,+++ (≥350),3 to 10,50 to 150
COc1ccc(Br)c2c1C(C(=O)NS(=O)(=O)c1cccn3cnnc13)CC2 (stereo not shown) [III-163],3 to 10,++ (≥150 and <350),≥ 10,< 50

Compound,EC50 (F508delCFTR [1]) [µM],Maximum % activity (with co-corrector) (F508delCFTR [1]),EC50 (F508delCFTR [2]) [µM],Emax (F508delCFTR [2]) [%]
COc1ccc(-c2cncnc2)c2c1C(C(=O)NS(=O)(=O)c1cccc3ccccc13)CCC2 (stereo not shown) [III-164],< 3,+++ (≥350),< 3,50 to 150
COc1ccc(-c2ccc(C3CC3)nc2)c2c1C(C(=O)NS(=O)(=O)c1cccc3ccccc13)CCC2 (stereo not shown) [III-165],< 3,++ (≥150 and <350),3 to 10,50 to 150
COc1ccc(-c2ccncc2)c2c1C(C(=O)NS(=O)(=O)c1cccc3ccccc13)CCC2 (stereo not shown) [III-166],< 3,++ (≥150 and <350),< 3,50 to 150
COc1ccc(-c2ccc(C)nc2)c2c1C(C(=O)NS(=O)(=O)c1cccc3ccccc13)CCC2 (stereo not shown) [III-167],< 3,++ (≥150 and <350),3 to 10,< 50
COc1ccc(-c2cncnc2)c2c1C(C(=O)NS(=O)(=O)c1cccc3ncccc13)CC2 (stereo not shown) [III-168],3 to 10,+++ (≥350),3 to 10,50 to 150
COc1ccc(C2=CCOCC2)c2c1C(C(=O)NS(=O)(=O)c1cccc3ncccc13)CC2 (stereo not shown) [III-169],< 3,+++ (≥350),3 to 10,≥ 150
COc1ccc(-c2ccc(C)cc2)c2c1C(C(=O)NS(=O)(=O)c1cccc3ccccc13)CCC2 (stereo not shown) [III-170],< 3,+++ (≥350),< 3,50 to 150
COc1ccc(-c2ccc(C(F)(F)F)nc2)c2c1C(C(=O)NS(=O)(=O)c1cccc3ccccc13)CCC2 (stereo not shown) [III-171],3 to 10,+++ (≥350),3 to 10,50 to 150
CCC1(C(=O)NS(=O)(=O)c2cccc(N3CCOCC3)c2C)CCc2c(Cl)cccc21 (stereo not shown) [III-172],< 3,++ (≥150 and <350),3 to 10,< 50
CCC1(C(=O)NS(=O)(=O)c2cccc(N(C)CCOC)c2C)CCc2c(Cl)cccc21 (stereo not shown) [III-173],3 to 10,+++ (≥350),3 to 10,50 to 150
COc1ccc(N2CCCC2)c2c1CCCC2C(=O)NS(=O)(=O)c1cccc2ccccc12 (stereo not shown) [III-174],≥ 10,+ (<150),≥ 10,< 50
COc1ccc2c(c1OC)CC2C(=O)NS(=O)(=O)c1ccccc1C (stereo not shown) [III-175],≥ 10,+ (<150),≥ 10,< 50
Cc1ccccc1S(=O)(=O)NC(=O)C1Cc2ccccc21 (stereo not shown) [III-176],≥ 10,+ (<150),≥ 10,< 50
COc1ccc2c(c1OC)CC2C(=O)NS(=O)(=O)c1cccc2ccccc12 (stereo not shown) [III-177],3 to 10,++ (≥150 and <350),≥ 10,< 50
COc1ccc2c(n1)CCC2C(=O)NS(=O)(=O)c1cccc2ccccc12 (stereo not shown) [III-178],3 to 10,++ (≥150 and <350),3 to 10,< 50
CCC1(C(=O)NS(=O)(=O)c2cccc(Cl)c2C(=O)O)CCc2c(Cl)cccc21 (stereo not shown) [III-179],≥ 10,+ (<150),≥ 10,< 50
COc1ccc(Br)c2c1C(C(=O)NS(=O)(=O)c1cccc3c(C(=O)O)cccc13)CC2 (stereo not shown) [III-181],3 to 10,++ (≥150 and <350),≥ 10,< 50

# Reference: US20180244611A1, “Modulators of the Cystic Fibrosis Transmembrane Conductance Regulator Protein and Methods of Use” (AbbVie S.à.r.l., priority 2017, published 2018)
